Where no end group is shown, it is not given here.
Legend:
TNF-α protein = TNF-α protein (Homo sapiens, UniProt P01375); assay: ELISA affinity assay of FITC-labeled peptide to coated TNF-α; assay type: binding; conditions: FIG. 1 / FIG. 2
Method: (§1) A 96-well ELISA plate was coated with 2 μg/ml TNF-α solution at 4° C. overnight. Different concentrations of peptide 632 labeled with FITC were added to each well and incubated for 2 h. After incubation, HRP-conjugated anti-FITC monoclonal antibody was added, incubated for 1 h, and then ABTS coloring solution was added. After color development for 1 h, the OD value at 410 nm was measured using a microplate reader, and GraphPad Prism 5 was used for plotting and analysis.
as §1, with “TNF-α protein” for “TNF-α solution”, “overnight. After blocking with BSA, different” for “overnight. Different”

[1] = system: p-xylene induced ear swelling in Kunming mice; assay: p-xylene induced mouse ear swelling model of inflammation; assay type: in vivo; conditions: male Kunming mice, subcutaneous injection for 3 consecutive days, p-xylene on right auricle, 1 h, versus control group
Method: The experimental animals were divided into three groups: blank group, a non-related peptide control group and an antagonist peptide (peptide 632) group. Using mice as an example, male Kunming mice of 6 weeks old were injected subcutaneously at right abdomen for 3 consecutive days. After the last injection, mice of each group were smeared with p-xylene on both sides of the right auricle. 1 h after the treatment, mice were sacrificed, and the left and right ears of the mice were cut. An ear swelling puncher was used to cut down ears to obtain ear pieces. Swelling degree of mouse ear were obtained by subtracting the weighs of left ear piece from the weighs of right ear piece.
The experimental animals were divided into three groups: blank group, a non-related peptide control group and an antagonist peptide (peptide 632) group. Male Kunming mice of 6 weeks old were injected subcutaneously with peptides at right abdomen for 3 consecutive days. 30 min after the last injection, mice of each group were smeared with p-xylene (0.03 ml/per mouse) on both sides of the right auricle to induce inflammation, and the left auricle was served as normal control. 1 h after the inflammation, animals were sacrificed, and the ears of mice were completely cut and marked to distinguish the left and right ears of the same mouse. […] The ear pieces were weighed together with papers, and the results were recorded. […]

Chain of TNF-α protein (P01375 77-233 limits assumed, species assumed): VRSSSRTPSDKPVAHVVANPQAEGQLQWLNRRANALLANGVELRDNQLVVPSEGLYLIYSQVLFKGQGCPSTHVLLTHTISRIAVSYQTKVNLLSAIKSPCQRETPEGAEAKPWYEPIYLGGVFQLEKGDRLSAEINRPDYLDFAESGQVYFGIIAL

| binding affinity for TNF-α protein (in words) (TNF-α protein) | Substance | swelling degree of mouse ear [1] | swelling degree of mouse ear ([1]; listed as antagonist peptide) |
| --- | --- | --- | --- |
| high binding affinity | HYIDFRW [peptide 632, HYIDFRW] | significantly lower than those of the control group | significantly inhibit the swelling of the mouse ear |
| high binding affinity | KASGSPSGFWPS [peptide 636] | – | – |
